Here are results for 13 compounds from EP0209274A2, “Furanone derivatives” (ELI LILLY AND COMPANY, priority 1985, dated 1987).

Structures are written as SMILES.

For assay [1], the target named is Pancreatic phospholipase A2 (Homo sapiens, UniProt P04054). The assay can be described thus: Phospholipase A2 (PLA2) Assay. Conditions: 30 µg/ml test compound; inhibition of 14C-free fatty acid formation. It is filed as biochemical. How it is done:
The assay buffer contained 10 mM Tris-HCl buffer, pH 8.0, 100 mM NaCl, 1 mM CaCl2 and 1 mg/ml of bovine serum albumin. A toluene-ethanol (1:1 v/v) solution of phosphatidiylcholine, L-a-dipalmitoyl-(2-palmitoyl-1-^14C) obtained from New England Nuclear was evaporated to dryness in a flask under nitrogen and the assay buffer was added to give a substrate concentration of 9.0 x 10^-5M (specific activity = 27.7 mCi/mmol). The mixture was sonicated for 5 minutes in a Bransonic 220 Sonication Bath. Pancreatic phospholipase A2 (specific activity = 600 units/mg) was diluted with the assay buffer to give an enzyme concentration of 0.1 mg/ml. […] To initiate the enzyme reaction, 0.1 ml of the mixture containing the substrate was added to the enzyme solution and the reaction mixture was further incubated for 30 minutes at 37°C. The reaction was then terminated by the addition of 20 µl of 1M citric acid.
Fifty µl of the mixture was added to 10 ml of scintillation fluid [5.88 g of 2,5-diphenyl-oxazole and 118 mg of 1,4-bis(5-phenyloxazol-2-yl)benzene] dissolved in 650 ml of toluene and 350 ml of Triton X-100) and the radioactivity was determined in an Isocap/300 liquid scintillation counter (Searle Analytic Inc., Southfield, Michigan). Another 50 µl of the mixture was applied directly onto the spotting area of a silica gel plate (LK6D, Whatman, Clifton, N.J.) and subjected to thin layer chromatography in a solvent system of ethyl acetate:acetic acid:2,2,4-trimethylpentane:H20 (90:20:50:100, v/v/v). The silica gel on the plate was scraped in 1 cm sections, suspended in 5 ml of the Triton X-100 based scintillation fluid and the radioactivity was determined. Phosphatidylcholine remained at the origin while fatty acids migrated to a few centimeters (2-3 cm) below the solvent front. The percent of ^14C-free fatty acid formed with the test compound added was calculated as compared to the amount formed in control experiments where no test compound was added. […]

The target of assay [2] is T1, 5-Lipoxygenase (Cavia porcellus, UniProt A0A286X958).
T1 construct: The PMNL suspension was disrupted by five ½-second pulse sonication; from tissue; host or cells: guinea pig peritoneal polymorphonuclear leukocytes (30,000 x g supernatant of the sonicate)
T1 sequence (A0A286X958 1-674): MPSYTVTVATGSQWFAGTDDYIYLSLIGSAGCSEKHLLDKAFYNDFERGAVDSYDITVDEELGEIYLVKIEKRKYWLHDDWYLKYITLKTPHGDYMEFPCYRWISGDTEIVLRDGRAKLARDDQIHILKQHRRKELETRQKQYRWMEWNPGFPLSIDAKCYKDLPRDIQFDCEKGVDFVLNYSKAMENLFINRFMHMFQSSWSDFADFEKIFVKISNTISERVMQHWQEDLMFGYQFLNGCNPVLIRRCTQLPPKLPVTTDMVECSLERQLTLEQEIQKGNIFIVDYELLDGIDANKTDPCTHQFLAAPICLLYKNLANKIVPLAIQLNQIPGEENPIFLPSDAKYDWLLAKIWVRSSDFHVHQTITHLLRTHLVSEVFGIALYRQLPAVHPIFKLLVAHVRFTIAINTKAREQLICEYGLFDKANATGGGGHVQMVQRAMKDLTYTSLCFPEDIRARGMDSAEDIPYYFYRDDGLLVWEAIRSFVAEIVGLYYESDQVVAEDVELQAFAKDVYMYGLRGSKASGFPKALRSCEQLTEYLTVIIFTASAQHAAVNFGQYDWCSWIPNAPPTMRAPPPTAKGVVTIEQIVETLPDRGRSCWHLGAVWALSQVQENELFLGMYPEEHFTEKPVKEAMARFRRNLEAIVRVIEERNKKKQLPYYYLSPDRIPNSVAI
The assay can be described thus: 5-Lipoxygenase (5-LPO) Assay. It counts as biochemical, guinea pigs. Conditions: inhibition of 5-HETE formation; supernatant of guinea pig PMNL sonicate; read-out: 5-LPO IC50 (µg/ml) (converted). How it is done: Ten milliliters of a 2% casein solution were injected intraperitoneally to guinea pigs weighing 250-300 gm. After 16-18 hours, the guinea pigs were killed by suffocation in a carbon dioxide chamber. The peritoneal cavity was infused with 70 ml of saline and 40-50 ml of the fluid were recovered from the cavity. After centrifugation, cell pellets were washed twice in Hank's balanced salt solution (HBSS) without calcium ion.
The cells were then suspended in 5 ml of sodium phosphate buffer, pH 7.1 containing 1 mM EDTA, and 0.1% gelatin. About 20-30 x 10^7 cells were obtained from one guinea pig.
The PMNL suspension was disrupted by five ½-second pulse sonication at the setting of 3 in a Branson Sonifier, Model 350, equipped with a microtip. The sonicates were combined and centrifuged at 30,000 x g for 10 minutes. The supernatant was kept frozen at -70°C until use.
. Enzyme activity was determined by assaying for 5-HETE formatiun by first incubating 0.2 ml of the supernatant obtained from the PMNL sonicate with the test compound, 1 mM CaCl2, 2 mM ATP, and 1 mM GSH for 5 minutes at 37°C. The mixture is treated with 5 pM ^14C-arachidonic acid and incubated at 37°C an additional 10 minutes. The enzyme reaction was then stopped by the addition of 10 µl of 1M citric acid and 10 µl of an alcohol solution containing 20 mg/ml each of indomethacin and butylated hydroxyanisole (BHA). The reaction mixture was spotted (50 µl) on a silica gel plate (Baker TLC plate S1250-PA-19C) and subjected to TLC in a solvent system of ethyl acetate/2,2,4-tri- methylpentane/glacial acetic acid/H20 (90:50:20:100).
The radioactivity of the arachidonic acid and its metabolites (5-HETE and LTB4) was visualized from a developed x-ray film which had been exposed to the TLC plate 1-2 days. The amount of 5-HETE formed was quanti- tated by scraping the silica gel area corresponding to the spot on the x-ray film, and the radioactivity determined in a Isocap/300 liquid scintillation counter (Searle Analytic, Inc.).
The percent inhibition of the formation of 5-HETE was determined for each concentration of test compound tested as compared to a control experiment wherein no test compound was added. The concentration and percent inhibition values were plotted on semi log paper and the concentration in which formation of 5-HETE is inhibited by 50% (ICso) was determined by interpolation.

Sequence of Pancreatic phospholipase A2 (P04054 23-148): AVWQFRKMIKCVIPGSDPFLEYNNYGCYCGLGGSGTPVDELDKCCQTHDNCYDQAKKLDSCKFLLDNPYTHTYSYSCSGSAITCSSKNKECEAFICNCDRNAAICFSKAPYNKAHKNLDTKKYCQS

In general, inhibition refers to how much of the control response was suppressed. A low value points to little suppression. `O=C1C=C(CCCCOc2ccc3ccccc3c2)C(O)O1` (centres unmarked) [Example 12, 5-Hydroxy-4-[4-(2-naphthalenyloxy)butyl]-2(5H)-furanone] gave an inhibition at 30 µg/mL in assay [1] of 72%. Further, the IC50 in assay [2] is 16.8 to 40.2 µM.

`CCCCC/C=C\C/C=C\CCCCCCC1=CC(=O)OC1O` (centres unmarked) [Example 1, (Z,Z)-4-(7,10-hexadecadienyl)-5-hydroxy-2-(5H)-furanone]: in assay [1], testing at 30 µg/mL gave an inhibition of 77%. In addition, the IC50 in assay [2] was 1.25 to 3.12 µM.

In assay [1], `CC/C=C\C/C=C\C/C=C\C/C=C\C/C=C\C/C=C\CC1=CC(=O)OC1O` (centres unmarked) [Example 9, (Z,Z,Z,Z,Z,Z)-4-(2,5,8,11,14,17-eicosa-hexaenyl)-5-hydroxy-2(5H)-furanone] displayed an inhibition at 30 µg/mL of 0%. For the same compound, the IC50 in assay [2] is 2.17 to 16.3 µM.

Turning to `CC/C=C\C/C=C\C/C=C\CCCCCCC1=CC(=O)OC1O` (centres unmarked) [Example 2, (Z,Z,Z)-4-(7,10,13-hexadecatrienyl)-5-hydroxy-2(5H)-furanone], at 30 µg/mL the inhibition in assay [1] was 82%. For the same compound, the IC50 in assay [2] was 0.471 to 1.88 µM.

For `CC(C)=CCC/C(C)=C/CCC1=CC(=O)OC1O` (centres unmarked) [Example 14, (E,E)-4-(4,8-dimethyl-3,7-nonadienyl)-5-hydroxy-2(5H)-furanone], testing at 30 µg/mL in assay [1] gave an inhibition of 72%. Besides, the IC50 in assay [2] was 24 µM.

Regarding `CC(C)=CCCC(C)=CCCC(C)=CCCC1=CC(=O)OC1O` (centres unmarked) [Example 13, 5-Hydroxy-4-(4,8,12-trimethyl-3,7,11-tri-decatrienyl)-2(5H)-furanone], at 30 µg/mL the inhibition in assay [1] was 50%. The IC50 in assay [2] is 25.1 µM.

For `CCCCCCCC/C=C\CCCCCCC1=CC(=O)OC1O` (centres unmarked) [Example 11, (Z)-4-(7-hexadecenyl)-5-hydroxy-2(5H)-furanone], in assay [1], the inhibition at 30 µg/mL is 51%. Besides, the IC50 in assay [2] was 1.24 µM.

`O=C1C=C(CCCCCOc2ccccc2Cc2ccccc2)C(O)O1` (centres unmarked) [Example 18, 5-Hydroxy-4-[5-(2-benzylphenoxy)pentyl]-2(5H)-furanone]: the inhibition at 30 µg/mL in assay [1] stood at 44%. Besides, the IC50 in assay [2] is 28.4 µM.

`CC(C)=CCCC(C)=CCCC(=CCCC1=CC(=O)OC1O)CO` (centres unmarked) [Example 19, 5-Hydroxy-4-[4-(hydroxymethyl)-8,12-dimethyl-3,7,11-tridecatrienyl]-2(5H)-furanone] displayed an inhibition at 30 µg/mL in assay [1] of 76%. Moreover, the IC50 in assay [2] was 4.48 µM.

`CCCCC/C=C\C/C=C\C/C=C\CCCC1=CC(=O)OC1O` (centres unmarked) [Example 5, (Z,Z,Z)-4-(4,7,10-hexadecatrienyl)-5-hydroxy-2(5H)-furanone] came in with an inhibition at 30 µg/mL in assay [1] of 77%. Besides, the IC50 in assay [2] was 1.57 to 4.71 µM.

`CCCCC/C=C\C/C=C\C/C=C\C/C=C\CCC1=CC(=O)OC1O` (centres unmarked) [Example 3, (Z,Z,Z,Z)-5-hydroxy-4-(3,6,9,12-octa-decatetraenyl)-2(5H)-furanone] had an inhibition at 30 µg/mL in assay [1] of 41%. Further, the IC50 in assay [2] was 0.435 to 1.16 µM.

As to `CCCCCCCC/C=C/CCCCCCC1=CC(=O)OC1O` (centres unmarked) [Example 4, (E)-4-(7-hexadecenyl)-5-hydroxy-2(5H)-furanone], the inhibition at 30 µg/mL in assay [1] came to 0%. The IC50 in assay [2] is roughly 3.1 µM.

In assay [1], `CC(C)=CCCC(C)=CCCC(C=O)=CCCC1=CC(=O)OC1O` (centres unmarked) [Example 15, 2-[3-(2,5-dihydro-2-hydroxy-5-oxo-3-furanyl)-propylidene]-6,10-dimethyl-5,9-undecadienal] yielded an inhibition at 30 µg/mL of 88%. The IC50 in assay [2] is 0.241 µM.
